The text below walks through data of patent US20060240095A1, “Pharmaceutical composition comprising a combination of metformin and a statin” (priority 2003, published 2006).

Molecules are shown by their SMILES. Like-named read-outs stand apart in the source and are kept apart here.

The conditions of data set [1]: cited from earlier work.
For data set [2] the following is noted: cited from earlier work. The source holds these as a separate data set.
Data set [3] concerns Zucker obese (fa/fa) rats. The following applies: serum, lovastatin 1 mg/kg/day and/or metformin 50 mg/kg twice a day p.o.
The subject of data set [4] is C57BL/Ks J Rj-db (db/db) mice. Briefly: Serum biomarkers in male db/db mice, simvastatin, metformin and combination per os for 5 days. The class given is in vivo, mouse. The following applies: oral once daily. As to the method: Male 12 weeks old C57BL/Ks J Rj-db (db/db) mice (Janvier, France), weighing in the target range of 30 to 50 g, were used in the study. They were housed 5 per cage in a temperature (19.5-24.5° C.) and relative humidity (45-65%) controlled room with a 12-h light/dark cycle, with ad libitum access to filtered tap-water and irradiated pelleted laboratory chow (ref. A04, SAFE, France) throughout the study. After acclimatization, they were randomized into groups of 10 according to homogeneous glycaemia:
Group 2: Metformin 150 mg/kg
The mice were given the treatment orally once daily for 5 consecutive days at constant time.

The next data set relates to ZUCKER fa/fa rats. In words: Serum biomarkers in Zucker obese (fa/fa) rats, simvastatin, metformin and combination per os for 5 days. The following applies: oral.
The conditions of data set [5]: pH of 7.0; cited from earlier work.
[6] abbreviates: water (distilled water for atorvastatin), in words.
The mark [7] stands for this setting: T0 (three days before beginning of treatment).
Where [8] appears, read: T5 (five days after beginning of treatment).
[9] abbreviates: T0 (three days before treatment), metformin 150 mg/kg and/or simvastatin 30 mg/kg.
Setting [10] is: T5 (five days after beginning of treatment), metformin 150 mg/kg and/or simvastatin 30 mg/kg.
Setting [11] is: T0 (three days before treatment), simvastatin 0.5 mg/kg and/or metformin 50 mg/kg twice a day.
Where [12] appears, read: T5 (five days after beginning of treatment), simvastatin 0.5 mg/kg and/or metformin 50 mg/kg twice a day.
Setting [13] is: T0 (three days before treatment), simvastatin 300 mg/kg alone or with metformin 150 mg/kg.
Where [14] appears, read: T0 (three days before treatment), simvastatin alone or with metformin 150 mg/kg.
Setting [15] is: T5 (five days after beginning of treatment), simvastatin 300 mg/kg alone or with metformin 150 mg/kg.
Where [16] appears, read: T5 (five days after beginning of treatment), simvastatin alone or with metformin 150 mg/kg.
Where [17] appears, read: T0 (three days before treatment), simvastatin 1 mg/kg alone or with metformin 50 mg/kg twice a day.
Where [18] appears, read: T5 (five days after beginning of treatment), simvastatin 1 mg/kg alone or with metformin 50 mg/kg twice a day.

On to `COCc1c(C(C)C)nc(C(C)C)c(/C=C/[C@@H](O)C[C@@H](O)CC(=O)O)c1-c1ccc(F)cc1` [Cerivastatin], for which the “effect of food on absorption” value in data set [1] (oral administration with food) was “not sensitive to a food effect”. In addition, the solubility in water entry in data set [2] (setting [6]) was “soluble”.

Take `CC[C@H](C)C(=O)O[C@H]1C[C@@H](C)C=C2C=C[C@H](C)[C@H](CC[C@@H]3C[C@@H](O)CC(=O)O3)[C@H]21` [Lovastatin]: in data set [3] (setting [7]), the Glucose came out at 7.88 mM, the “HDL C” value was found to be 2.00 mM, the Insulin is 0.35 nM and the “Total Cholesterol” value turned out to be 2.38 mM. The molecule further gave a Triglycerides in data set [3] (setting [7]) of 4.18 mM. Moreover, in data set [3] (setting [8]), the Glucose came to 8.21 mM, the “HDL C” value was found to be 2.16 mM, the Insulin was determined as 0.39 nM and the “Total Cholesterol” value is reported as 2.54 mM. In addition, the Triglycerides in data set [3] (setting [8]) was 4.79 mM. Moreover, the solubility in water entry in data set [2] (setting [6]) is reported as “insoluble”.

For the molecule `CN(C)C(=N)N=C(N)N` [Metformin], the Glucose in data set [4] (setting [9]) was 37.00 mM; in data set [4] (setting [10]), 23.03 mM; in the data set on ZUCKER fa/fa rats (setting [11]), 6.69 mM; in the data set on ZUCKER fa/fa rats (setting [12]) it was 9.23 mM; in data set [3] (setting [7]) it was 8.27 mM; in data set [3] (setting [8]) it was 7.73 mM. The Insulin in data set [4] (setting [9]) was determined as 4.60 nM; in data set [4] (setting [10]), 2.82 nM; in the data set with ZUCKER fa/fa rats (setting [11]), 0.63 nM; in the data set with ZUCKER fa/fa rats (setting [12]), 0.71 nM; in data set [3] (setting [7]), 0.34 nM; in data set [3] (setting [8]), 0.38 nM. In addition, the NEFA in data set [4] (setting [9]) worked out at 0.654 mM; in data set [4] (setting [10]), 0.798 mM. Besides, the “Total Cholesterol” value was found to be 3.07 mM in data set [4] (setting [9]); 3.63 mM in data set [4] (setting [10]); 2.47 mM in the data set on ZUCKER fa/fa rats (setting [11]); 2.32 mM with ZUCKER fa/fa rats (setting [12]); 2.55 mM in data set [3] (setting [7]); 2.72 mM in data set [3] (setting [8]). Also, the Triglycerides in data set [4] (setting [9]) is on record as 1.30 mM; in data set [4] (setting [10]) it was 1.34 mM; in the data set with ZUCKER fa/fa rats (setting [11]), 4.18 mM; in the data set on ZUCKER fa/fa rats (setting [12]) it was 5.12 mM; in data set [3] (setting [7]), 4.08 mM; in data set [3] (setting [8]) it was 5.17 mM. The “HDL C” value was 2.30 mM in the data set on ZUCKER fa/fa rats (setting [11]), 2.16 mM with ZUCKER fa/fa rats (setting [12]), 2.08 mM in data set [3] (setting [7]) and 2.25 mM in data set [3] (setting [8]).

For `CCC(C)(C)C(=O)O[C@H]1C[C@@H](C)C=C2C=C[C@H](C)[C@H](CC[C@@H]3C[C@@H](O)CC(=O)O3)[C@H]21` [Simvastatin], the Glucose worked out at 36.27 mM in data set [4] (setting [9]); 36.91 mM in data set [4] (setting [13]); 25.95 mM in data set [4] (setting [10]); 21.18 mM in data set [4] (setting [15]); 6.63 mM in the data set with ZUCKER fa/fa rats (setting [11]); 7.08 mM in the data set with ZUCKER fa/fa rats (setting [17]). The Glucose amounted to 9.44 mM in the data set with ZUCKER fa/fa rats (setting [12]) and 8.35 mM in the data set with ZUCKER fa/fa rats (setting [18]). The Insulin in data set [4] (setting [9]) is given as 4.60 nM; in data set [4] (setting [14]) it was 4.86 nM; in data set [4] (setting [10]), 2.74 nM; in data set [4] (setting [16]) it was 2.37 nM; in the data set on ZUCKER fa/fa rats (setting [11]), 0.55 nM; in the data set on ZUCKER fa/fa rats (setting [17]), 0.63 nM. Moreover, the Insulin worked out at 0.76 nM in the data set on ZUCKER fa/fa rats (setting [12]) and 0.67 nM with ZUCKER fa/fa rats (setting [18]). Further, the NEFA came out at 0.646 mM in data set [4] (setting [9]), 0.639 mM in data set [4] (setting [14]), 0.897 mM in data set [4] (setting [10]) and 0.785 mM in data set [4] (setting [16]). The “Total Cholesterol” value in data set [4] (setting [9]) turned out to be 2.96 mM; in data set [4] (setting [13]) it was 2.95 mM; in data set [4] (setting [10]) it was 3.33 mM; in data set [4] (setting [15]) it was 2.87 mM; in the data set on ZUCKER fa/fa rats (setting [11]), 2.46 mM; in the data set with ZUCKER fa/fa rats (setting [17]), 2.48 mM. Further, the results for the “Total Cholesterol” value in the data set with ZUCKER fa/fa rats (setting [12]) and in the data set with ZUCKER fa/fa rats (setting [18]) were 2.46 mM and 2.60 mM, respectively. The Triglycerides in data set [4] (setting [9]) was found to be 1.34 mM; in data set [4] (setting [14]), 1.44 mM; in data set [4] (setting [10]), 1.49 mM; in data set [4] (setting [16]), 0.78 mM; in the data set on ZUCKER fa/fa rats (setting [11]), 4.61 mM; in the data set with ZUCKER fa/fa rats (setting [17]) it was 4.67 mM. Also, the Triglycerides is recorded as 5.23 mM in the data set on ZUCKER fa/fa rats (setting [12]) and 5.89 mM in the data set with ZUCKER fa/fa rats (setting [18]). Also, the “HDL C” value in the data set with ZUCKER fa/fa rats (setting [11]) is reported as 2.32 mM; in the data set on ZUCKER fa/fa rats (setting [17]) it was 2.34 mM; with ZUCKER fa/fa rats (setting [12]), 2.32 mM; in the data set with ZUCKER fa/fa rats (setting [18]), 2.43 mM.

On to `CC(C)n1c(/C=C/C(O)CC(O)CC(=O)O)c(-c2ccc(F)cc2)c2ccccc21` (stereo not drawn) [Fluvastatin], for which the “time to peak concentrations” value in data set [1] (following oral administration) was “less than 1 hour”. Further, the solubility in water result in data set [2] (setting [6]) is listed as “soluble”.

As to `CC[C@H](C)C(=O)O[C@H]1C[C@H](O)C=C2C=C[C@H](C)[C@H](CC[C@@H](O)C[C@@H](O)CC(=O)O)[C@H]21` [Pravastatin], the “partition coefficient (octanol/water)” value in data set [5] is 0.59. The solubility in water in data set [2] (methanol and water) was more than 300 mg/mL.
